Values after ≈ are worked out from the molar mass of the structure shown.
details: buffer; pH 7.4; 6.0 h; 150.0 µM

Compound	solubility kinetic [µg/mL]
CN(C)CCCn1cc(C2=C(c3c[nH]c4ccccc34)C(=O)NC2=O)c2ccccc21	> 41
CCCN(C(=O)c1sc2nc3n(c(=O)c2c1C)CCCC3)c1ccccc1C	1.83 (≈ 4.64 µM)
C[C@@H](O)CNC(C)(C)CC(=O)N[C@@H]1CCc2ccccc2N(Cc2ccc(-c3ccccc3-c3nn[nH]n3)cc2)C1=O	> 84
CCN1CCN(CCCNC(=O)c2ccc3c(c2)sc2nc(-c4ccc(OC)cc4)cn23)CC1	> 71
CCOC(=O)c1ccnc(CNCC(=O)N(CC)CCN(C)C)c1	> 50
CSc1nc(N)cc(Oc2ccc(-c3nc(Nc4cccc(C(F)(F)F)c4)n[nH]3)cc2)n1	< 1
Nc1scc2c(C(=O)O)nn(-c3ccccc3)c(=O)c12	23.9 (≈ 83.1 µM)
CN(C)C(=O)c1ccc(-c2cc[nH]c(=O)c2N)cc1	> 38
O=C(NCCCc1ccccc1)C1CCN(c2nc(-c3ccc(Br)cc3)cs2)CC1	3.28 (≈ 6.77 µM)
FC(F)(F)c1ccccc1-c1nc(NCc2cccs2)c2ccccc2n1	< 1
COc1cc2nccc(Oc3ccc(NC(=O)C4(C(=O)Nc5ccc(F)cc5)CC4)cc3)c2cc1OC	< 1
CCNc1oc(-c2cccc3ccccc23)nc1C#N	< 1
COc1ccc(S(=O)(=O)N2CCCCCC2)cc1NC(=O)Cc1n[nH]c(=O)c2ccccc12	8.46 (≈ 18 µM)
O=C1C(SCCO)=C(SCCO)C(=O)c2ccccc21	> 31
O=S(=O)(Nc1nccs1)c1ccc(NCc2cc(F)ccc2O)cc1	> 56
CCc1ccc(C2C(C(=O)Nc3ccccc3OC)=C(C)Nc3c(C(=O)Nc4ccc(C)cc4)cnn32)cc1 (stereo not given)	5.74 (≈ 11 µM)
Cc1cc(NC(=O)c2ccc(NC(=O)Cc3ccc(Cl)c(Cl)c3)cc2)no1	1.43 (≈ 3.55 µM)
Br.CC(Cc1ccc(O)cc1)NCC(O)c1cc(O)cc(O)c1 (stereo not given)	> 45
COc1nccc(-c2nc(Nc3ccc(F)c(F)c3)c3ccccc3n2)c1OC	< 1
Cn1ncnc1[C@H]1c2n[nH]c(=O)c3cc(F)cc(c23)N[C@@H]1c1ccc(F)cc1	> 38
O=S(=O)(Nc1cnc2ccccc2c1)c1ccc(NCc2ccc(Br)cc2O)cc1	< 1
O=C(O)c1c(Sc2ccccc2)c2cc(Cl)ccc2n1Cc1ccc(Cl)cc1	> 63
NC(=O)C1CCN(c2nc(-c3ccc(Br)cc3)cs2)CC1	< 1
Cc1cnc(-c2ccccc2OC(C)C)nc1NCc1ccc(-n2ccnn2)cc1	41.4 (≈ 103 µM)
Cc1ccc(CN2C(=O)C(O)(CC(=O)c3ccc(C)cc3)c3ccccc32)cc1 (stereo not given)	< 1

Compound	solubility kinetic [µg/mL]
O=C(Nc1ncc([S+](=O)([O-])N2CCOCC2)s1)c1cccc(Br)c1	2.94 (≈ 6.79 µM)
CN(C(=O)c1cn2c(-c3ccc(C(F)(F)F)cc3)cnc2cn1)c1ccc(C#N)cc1	3.56 (≈ 8.46 µM)
FC(F)(F)Oc1cccc(Nc2nc(-c3ccncc3)nc3ccccc23)c1	< 1
COc1cc2ncnc(Nc3ccc(Oc4ccccc4)cc3)c2cc1OC	< 1
COCC(C)NCc1cc2ccc(OC)cc2nc1N1CCN(c2ccc(F)cc2)CC1 (stereo not given)	39.5 (≈ 90.1 µM)
COc1ccc(-c2cn[nH]c2-c2ccc(OC)cc2)cc1	4.26 (≈ 15.2 µM)
COc1ccc(C(=O)c2sc(Nc3cccc(Cl)c3)nc2N)cc1	< 1
Nc1c(-c2ccncc2)cc[nH]c1=O	11.8 (≈ 63.1 µM)
Nc1cc(-c2nc(Nc3ccc(F)c(F)c3)c3ccccc3n2)ccn1	< 1
Cc1cccc(N(C)c2nc3ccccc3c3nnc(C)n23)c1	> 45
CN(C)C(=O)C1CCN(c2nc(-c3ccc(Br)cc3)cs2)CC1	1.8 (≈ 4.56 µM)
CC(=O)c1c(C)[nH]c(C(=O)Nc2cccc(S(=O)(=O)N3CCOCC3)c2)c1C	> 60
O=C(NC1CCCN(c2cc(-c3ccc(F)cc3)[nH]n2)C1)c1ccc2ncccc2c1 (stereo not given)	12.5 (≈ 30.2 µM)
NC(=O)c1cccc(-c2cc(Nc3ccc(OC(F)(F)F)cc3)ncn2)c1	< 1
CN(C(=O)COC(=O)c1csc(NCc2ccccc2)n1)c1ccccc1	26.4 (≈ 69.1 µM)
CCCOC(c1cc2nccc(C(=O)O)c2[nH]1)c1ccccc1Cl (stereo not given)	> 51
O=C(Nc1cccc(C(F)(F)F)c1)c1cc2nc(-c3ccccc3)cc(C(F)(F)F)n2n1	< 1
Cc1ccc(S(=O)(=O)Nc2cc(C)ccc2C(=O)Nc2nc(-c3ccccc3)cs2)cc1	< 1
O=C(O)c1ccnc2cc(C(OCC3CCC(F)(F)CC3)c3ccccc3Cl)[nH]c12 (stereo not given)	> 64
COc1ccc(NC(=O)c2ccc[nH]2)cc1S(=O)(=O)Nc1ccc(Br)cc1	< 1
N#Cc1ccc(-c2csc(N3CCC(C(N)=O)CC3)n2)cc1	4.34 (≈ 13.9 µM)
CCOC(=O)N1CCN(Cc2nc3cc(NC(=O)c4ccc(OC)cc4)ccc3n2C(C)C)CC1	14.7 (≈ 30.7 µM)
CCOc1ccc(N2CC(c3nc(-c4ccccn4)no3)CC2=O)cc1 (stereo not given)	> 35
NC(=O)C1CCN(c2nc(-c3ccccc3-c3ccccc3)cs2)CC1	30.6 (≈ 84.3 µM)
O=C1CCCCc2cc(O)c(O)cc21	> 28
